Key:
wild oat = assay: Test B pre/postemergence wild oat; assay type: in vivo, Avena fatua
In short: (§1)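 Response is a visual 0-to-10 score relative to untreated plants, where 0 means no effect and 10 means complete control, taken twelve to sixteen days after application. Treatments went onto soil at planting and onto foliage of 1- to 4-leaf plants, using a surfactant-containing non-phytotoxic solvent.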

blackgrass = assay: Test B pre/postemergence blackgrass; assay type: in vivo, Alopecurus myosuroides
In short: as §1

sugar beet = assay: Test B pre/postemergence sugar beet; assay type: in vivo, Beta vulgaris
In short: as §1

velvetleaf = assay: Test B pre/postemergence velvetleaf; assay type: in vivo, Abutilon theophrasti
In short: as §1

purple nutsedge = assay: Test B pre/postemergence purple nutsedge; assay type: in vivo, Cyperus rotundus
In short: as §1

soybean = assay: Test B pre/postemergence soybean; assay type: in vivo, Glycine max
In short: as §1

pigweed = assay: Test B pre/postemergence pigweed; assay type: in vivo, Amaranthus retroflexus
In short: as §1

crabgrass = assay: Test B pre/postemergence crabgrass; assay type: in vivo, Digitaria sanguinalis
In short: as §1

wheat = assay: Test B pre/postemergence wheat; assay type: in vivo, Triticum aestivum
In short: as §1

corn = assay: Test B pre/postemergence corn; assay type: in vivo, Zea mays
In short: as §1

duck salad = assay: Test B flood test duck salad; assay type: in vivo, Heteranthera limosa; details: flood test species
In short: (§2)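 Flood test on plants grown to the 2-leaf stage; treated plants kept in greenhouse twelve to sixteen days, then visually rated against controls on a 0 (no effect) to 10 (complete control) scale.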

morningglory = assay: Test B pre/postemergence morningglory; assay type: in vivo, Ipomoea hederacea
In short: as §1

rape = assay: Test B pre/postemergence rape; assay type: in vivo, Brassica napus
In short: as §1

bedstraw = assay: Test B pre/postemergence bedstraw; assay type: in vivo, Galium aparine; details: Postemergence
In short: as §1

rice = assay: Test B flood test rice; assay type: in vivo, Oryza sativa; details: flood test species
In short: as §2

bamyardgrass = assay: Test B flood test barnyardgrass; assay type: in vivo, Echinochloa crus-galli; details: flood test species
In short: as §2

cocklebur = assay: Test B pre/postemergence cocklebur; assay type: in vivo, Xanthium strumarium
In short: as §1

smallflower flatsedge = assay: Test B flood test smallflower flatsedge; assay type: in vivo, Cyperus difformis; details: flood test species
In short: as §2

giant foxtail = assay: Test B pre/postemergence giant foxtail; assay type: in vivo, Setaria faberii
In short: as §1

surinam grass = assay: Test B pre/postemergence surinam grass; assay type: in vivo, Brachiaria decumbens
In short: as §1

[1] = Postemergence, Rate 125 g/ha, scale 0 to 10, 0 is no effect, 10 is complete control
[2] = Postemergence, Rate 500 g/ha, scale 0 to 10, 0 is no effect, 10 is complete control
[3] = Preemergence, Rate 62 g/ha, scale of 0 to 10 where 0 is no effect and 10 is complete control
[4] = Preemergence, Rate 125 g/ha, scale 0 to 10, 0 is no effect, 10 is complete control
[5] = Preemergence, Rate 250 g/ha, scale 0 to 10, 0 is no effect, 10 is complete control
[6] = Preemergence, Rate 500 g/ha, scale 0 to 10, 0 is no effect, 10 is complete control
[7] = Rate 62 g/ha, Postemergence, scale 0 to 10 (0 no effect, 10 complete control)
[8] = Postemergence, Rate 250 g/ha, scale 0 to 10
[9] = Rate 62 g/ha, Pre-emergence, visual evaluation after twelve to sixteen days
[10] = Rate 125 g/ha, under heading Pre-emergence, visual evaluation after twelve to sixteen days
[11] = Rate 500 g/ha, Pre-emergence, scale 0 to 10 (0 no effect, 10 complete control)

CC(C)C(=O)Cn1c(=O)on(C(=O)N(c2ccccc2)C(C)C)c1=O [Compound 485]
Wild oats plant response rating (wild oat; [1]): 0
Plant response rating, Wild oats (wild oat; [2]): 4
Plant response rating, Wild oats (wild oat; [3]): 2
Wild oats plant response rating (wild oat; [4]): 5
Wild oats plant response rating (wild oat; [5]): 6
Wild oats plant response rating (wild oat; [6]): 8
Wild oats plant response rating (wild oat; [7]): 0
Blackgrass plant response rating (blackgrass; [1]): 7
Blackgrass plant response rating (blackgrass; [8]): 7
Plant response rating, Blackgrass (blackgrass; [2]): 8
Plant response rating, Blackgrass (blackgrass; [3]): 4
Blackgrass plant response rating (blackgrass; [4]): 8
Blackgrass plant response rating (blackgrass; [5]): 8
Blackgrass plant response rating (blackgrass; [6]): 9
Blackgrass plant response rating (blackgrass; [7]): 3
Sugarbeets plant response rating (sugar beet; [1]): 0
Plant response rating, Sugarbeets (sugar beet; [2]): 0
Plant response rating, Sugarbeets (sugar beet; [3]): 0
Sugarbeets plant response rating (sugar beet; [4]): 0
Sugarbeets plant response rating (sugar beet; [5]): 0
Sugarbeets plant response rating (sugar beet; [6]): 2
Sugarbeets plant response rating (sugar beet; [7]): 0
Velvetleaf plant response rating (velvetleaf; [1]): 0
Plant response rating, Velvetleaf (velvetleaf; [2]): 4
Plant response rating, Velvetleaf (velvetleaf; [3]): 0
Velvetleaf plant response rating (velvetleaf; [4]): 0
Velvetleaf plant response rating (velvetleaf; [5]): 0
Velvetleaf plant response rating (velvetleaf; [6]): 3
Velvetleaf plant response rating (velvetleaf; [7]): 0
Nutsedge plant response rating (purple nutsedge; [1]): 0
Plant response rating, Nutsedge (purple nutsedge; [2]): 0
Plant response rating, Nutsedge (purple nutsedge; [3]): 0
Nutsedge plant response rating (purple nutsedge; [4]): 0
Nutsedge plant response rating (purple nutsedge; [5]): 0
Nutsedge plant response rating (purple nutsedge; [6]): 0
Nutsedge plant response rating (purple nutsedge; [7]): 0
Soybean plant response rating (soybean; [1]): 4
Plant response rating, Soybean (soybean; [2]): 5
Plant response rating, Soybean (soybean; [3]): 0
Soybean plant response rating (soybean; [4]): 0
Soybean plant response rating (soybean; [5]): 0
Soybean plant response rating (soybean; [6]): 0
Soybean plant response rating (soybean; [7]): 2
Redroot pigweed plant response rating (pigweed; [1]): 0
Plant response rating, Redroot pigweed (pigweed; [2]): 2
Plant response rating, Redroot pigweed (pigweed; [3]): 1
Redroot pigweed plant response rating (pigweed; [4]): 6
Redroot pigweed plant response rating (pigweed; [6]): 9
Redroot pigweed plant response rating (pigweed; [7]): 0
Crabgrass plant response rating (crabgrass; [1]): 6
Crabgrass plant response rating (crabgrass; [8]): 7
Plant response rating, Crabgrass (crabgrass; [2]): 8
Plant response rating, Crabgrass (crabgrass; [3]): 6
Crabgrass plant response rating (crabgrass; [4]): 7
Crabgrass plant response rating (crabgrass; [5]): 10
Crabgrass plant response rating (crabgrass; [6]): 10
Crabgrass plant response rating (crabgrass; [7]): 3
Wheat plant response rating (wheat; [1]): 0
Plant response rating, Wheat (wheat; [2]): 5
Plant response rating, Wheat (wheat; [3]): 0
Wheat plant response rating (wheat; [4]): 2
Wheat plant response rating (wheat; [5]): 3
Wheat plant response rating (wheat; [6]): 5
Wheat plant response rating (wheat; [7]): 0
Corn plant response rating (corn; [1]): 0
Corn plant response rating (corn; [8]): 0
Plant response rating, Corn (corn; [2]): 0
Plant response rating, Corn (corn; [3]): 0
Corn plant response rating (corn; [4]): 0
Corn plant response rating (corn; [5]): 0
Corn plant response rating (corn; [6]): 7
Corn plant response rating (corn; [7]): 0
Plant response rating, Ducksalad (0 to 10 scale, 0 is no effect, 10 is complete control) (duck salad; [9]): 0
Ducksalad plant response rating (0 to 10 scale, 0 is no effect, 10 is complete control) (duck salad; [10]): 0
Ducksalad plant response rating (duck salad; [11]): 0
Morningglory plant response rating (morningglory; [1]): 10
Plant response rating, Morningglory (morningglory; [2]): 10
Plant response rating, Morningglory (morningglory; [3]): 0
Morningglory plant response rating (morningglory; [4]): 0
Morningglory plant response rating (morningglory; [5]): 0
Morningglory plant response rating (morningglory; [6]): 4
Morningglory plant response rating (morningglory; [7]): 8
Rape plant response rating (rape; [1]): 0
Plant response rating, Rape (rape; [2]): 0
Plant response rating, Rape (rape; [3]): 0
Rape plant response rating (rape; [4]): 0
Rape plant response rating (rape; [5]): 0
Rape plant response rating (rape; [6]): 2
Rape plant response rating (rape; [7]): 0
Bedstraw plant response rating (bedstraw; Rate 125 g/ha, scale 0 to 10, 0 is no effect, 10 is complete control): 0
Bedstraw plant response rating (bedstraw; Rate 250 g/ha, scale 0 to 10): 2
Plant response rating, Bedstraw (bedstraw; Rate 500 g/ha, scale 0 to 10, 0 is no effect, 10 is complete control): 6
Bedstraw plant response rating (bedstraw; Rate 62 g/ha, scale 0 to 10 (0 no effect, 10 complete control)): 0
Plant response rating, Rice (0 to 10 scale, 0 is no effect, 10 is complete control) (rice; [9]): 0
Rice plant response rating (0 to 10 scale, 0 is no effect, 10 is complete control) (rice; [10]): 0
Rice plant response rating (rice; [11]): 0
Plant response rating, Barnyardgrass (0 to 10 scale, 0 is no effect, 10 is complete control) (bamyardgrass; [9]): 0
Barnyardgrass plant response rating (0 to 10 scale, 0 is no effect, 10 is complete control) (bamyardgrass; [10]): 0
Barnyardgrass plant response rating (bamyardgrass; [11]): 0
Cocklebur plant response rating (cocklebur; [1]): 0
Cocklebur plant response rating (cocklebur; [8]): 0
Plant response rating, Cocklebur (cocklebur; [2]): 0
Plant response rating, Cocklebur (cocklebur; [3]): 0
Cocklebur plant response rating (cocklebur; [4]): 0
Cocklebur plant response rating (cocklebur; [5]): 0
Cocklebur plant response rating (cocklebur; [6]): 0
Cocklebur plant response rating (cocklebur; [7]): 0
Plant response rating, S. Flatsedge (0 to 10 scale, 0 is no effect, 10 is complete control) (smallflower flatsedge; [9]): 0
S. Flatsedge plant response rating (0 to 10 scale, 0 is no effect, 10 is complete control) (smallflower flatsedge; [10]): 0
S. Flatsedge plant response rating (smallflower flatsedge; [11]): 0
Giant foxtail plant response rating (giant foxtail; [1]): 7
Plant response rating, Giant foxtail (giant foxtail; [2]): 8
Plant response rating, Giant foxtail (giant foxtail; [3]): 7
Giant foxtail plant response rating (giant foxtail; [4]): 8
Giant foxtail plant response rating (giant foxtail; [5]): 10
Giant foxtail plant response rating (giant foxtail; [6]): 10
Giant foxtail plant response rating (giant foxtail; [7]): 5
B. signalgrass plant response rating (surinam grass; [1]): 0
B. signalgrass plant response rating (surinam grass; Postemergence, Rate 250 g/ha, scale 0 to 10, 0 no effect, 10 complete control): 4
Plant response rating, B. signalgrass (surinam grass; [2]): 5
Plant response rating, B. signalgrass (surinam grass; [3]): 3
B. signalgrass plant response rating (surinam grass; [4]): 5
B. signalgrass plant response rating (surinam grass; [5]): 8
B. signalgrass plant response rating (surinam grass; [6]): 8
B. signalgrass plant response rating (surinam grass; [7]): 0

Source: patent US6737383B1, “Herbicidal oxadiazolidines” (priority 1999, dated 2004)
